From patent US8966812B2, “Trap for bed bugs and the like” (Susan McKnight, Inc., priority 2007, dated 2015)

Assays:
Assay type in all cases: in vivo, cimex lectularius
bed bugs [1] = assay: Example 3: carbon dioxide synergism with experimental lure composition, climb-up pitfall trap in infested apartment building, 14 days
Experimental: A molded polypropylene dog dish was turned upside down to form the climb-up pitfall trap 1 as described in Example 2. The trap 1 was positioned on the floor of an apartment building known to be infested by bed bugs, and was tested without any lure. This served as the control test illustrated as Test 6 in FIG. 7. The trap was loaded with a heat blanket (heat source 8). The heat blanket generated temperatures of 44.8 to 47.3 degrees Celsius (112.6 to 117.1 degrees Fahrenheit). The trap 1 with heat source 8 was tested with results shown as Test 2 in FIG. 7. The trap was then loaded with a flexible tube connected to a 5 lbs. compressed carbon dioxide cylinder (carbon dioxide source 9). The carbon cylinder emitted 500 ml/min of carbon dioxide through a tube to the area over the center stage 7 of the trap. The trap with carbon dioxide source 9 was tested with the results shown as Test 4 in FIG. 7. The trap was then loaded with an experimental lure comprising: 100 micrograms of L-lactic acid, 33 micrograms of propionic acid, 0.33 micrograms of butyric acid, 0.33 micrograms of valeric acid and 100 micrograms of octenol (i.e., “lure composition 10”), the experimental lure being combined in a fragrance releasing gel. The trap with experimental lure (lure composition 10) was tested with the results indicated in Test 5 of FIG. 7. […]

bed bugs [2] = assay: Example 2: climb-up pitfall trap with heat source and lures incl. experimental lure composition, infested apartment building, 14 days; conditions: trap with heat source plus lure, tested several times for 14 days, FIG. 6
Description: A molded polypropylene dog dish was turned upside down to form climb-up pitfall trap 1 as described in Example 1. The exterior surface 2 was covered with Pellon® featherweight fusible interfacing to form a climbing surface. […] The trap 1 was positioned on the floor of an apartment building known to be infested by bed bugs. As indicated in the bar chart of FIG. 6, the trap 1 was loaded with a heat blanket (heat source 8). The heat blanket generated temperatures of 44.8 to 47.3 degrees Celsius (112.6 to 117.1 degrees Fahrenheit). The trap with heat source 8 was tested several times for 14 days with a modest mean trap count. This test served as a control test. The trap was then loaded with an octenol lure without L-lactic acid. The heat blanket again generated heat. […] The trap was then loaded with an octenol and L-lactic acid lure, in place of the octenol lure. The heat blanket again generated heat. […] The trap was then loaded with an experimental lure consisting of a combination of 100 micrograms of L-lactic acid, 33 micrograms of propionic acid, 0.33 micrograms of butyric acid, 0.33 micrograms of valeric acid and 100 micrograms of octenol (lure composition 10), the experimental lure being combined in a fragrance releasing gel. The heat blanket again generated heat. […]

bed bugs [3] = assay: Example 1: climb-up pitfall trap with heat source and lures in an infested apartment building, 14 days; conditions: trap with heat source 44.8 to 47.3 degrees Celsius plus lure, FIG. 5
Description: The exterior surface 2 was covered with cloth, the cloth being attached by masking tape, to form a climbing surface. Precipice 3 was formed by the outer edge of the dog dish. Interior surface 4 was formed by the underside of the outer rim of the dog dish which faces upward when the dog dish is turned upside down. Receptacle 5 was formed along the inside of the precipice 3 by the interior surface 4 and the retaining surface 6, effectively forming a capture moat area. The retaining surface 6 was formed by the underside of the inner bowl walls of the dog dish. Center stage 7 was formed by the underside of the bowl portions of the dog dish. The trap 1 was positioned on the floor of an apartment building known to be infested by bed bugs. Referring to the chronological chart of FIG. 5, the trap 1 was initially loaded with a heat blanket (heat source 8) alone. The heat blanket generated temperatures of 44.8 to 47.3 degrees Celsius (112.6 to 117.1 degrees Fahrenheit). The trap 1 with heat source 8 was tested for 14 days. The trap 1 was then loaded with an octenol lure in addition to the heat source 8, but excluding lactic acid. The heat blanket again generated heat. The trap 1 was then loaded with an octenol and L-lactic acid lure as described above, in place of the octenol lure. The heat blanket again generated heat.

SMILES	number of bed bugs caught, times the control (trap only) (bed bugs [1]; carbon dioxide 500 ml/min alone, Test 4 of FIG. 7)	number of bed bugs caught, times the control test (trap only) (bed bugs [1]; heat source plus carbon dioxide 500 ml/min, Test 3 of FIG. 7)	mean trap count compared with other traps (bed bugs [2])	bed bugs caught compared with control test (trap with heat source alone) (bed bugs [3])
O=C=O [carbon dioxide source 9, carbon dioxide]	~3 times	~4 times	–	–
C=CC(O)CCCCC (stereo not shown) [octenol lure, 1-octen-3-ol]	–	–	less effective results than heat alone	caught more bugs
